Series [1] relates to Human immunodeficiency virus. Kind of series: Antiviral activity against HIV with reverse transcriptase 6TAMs mutation assessed as fold resistance relative to wild type. Format: functional.
In series [2] the test system is Human immunodeficiency virus. Kind of series: Antiviral activity against HIV with reverse transcriptase M184V mutation assessed as fold resistance relative to wild type. The format is functional.
Series [3] is described as follows: Cytotoxicity against human MT2 cells. The format is cell-based.
Series [4] deals with Human immunodeficiency virus. Kind of series: Antiviral activity against HIV with reverse transcriptase K65R mutation assessed as fold resistance relative to wild type. The format is functional.
The subject of series [5] is Human immunodeficiency virus 1. Kind of series: Antiviral activity against wild type HIV1 3B in MT2 cells. Format: functional, organism-based. The note with it: Human immunodeficiency virus 1, 3B.
Series [6] addresses Human immunodeficiency virus type 1 reverse transcriptase (Human immunodeficiency virus 1, UniProt Q72547). The experiment in a line: Inhibition of wild type HIV 3B reverse transcriptase.

The values below come from ChEMBL document CHEMBL1143131, “Synthesis and anti-HIV activity of GS-9148 (2'-Fd4AP), a novel nucleoside phosphonate HIV reverse transcriptase inhibitor” (Bioorg Med Chem Lett, 2008).

SMILES strings stand for the structures. Bounds are passed on as bounds.

Broadly, the CC50 is the concentration at which the toxic effect on the cells reaches its halfway point. Low values mean greater toxicity to the cells, high ones lower toxicity to the cells. Usually EC50 stands for the concentration at which the effect is half-maximal. Read a high EC50 as weaker potency. For orientation: IC50 means the concentration that gives 50% inhibition.

Take `C[C@H](Cn1cnc2c(N)ncnc21)OCP(=O)(O)O` [TENOFOVIR ANHYDROUS]: the Activity in series [1] came to 8.8; in series [2], 0.7; in series [4] it was 4.3. For the same compound, the CC50 in series [3] is more than 500 µM.
As to `Nc1ncnc2c1ncn2[C@@H]1C=C[C@H](OCP(=O)(O)O)O1`, the figures for the Activity in series [1], in series [2] and in series [4] were 13.7, 7.1 and 3.6, respectively. The compound also showed an EC50 in series [5] of 5.9 µM. The same compound gave a CC50 in series [3] of more than 1000 µM.
As to `Nc1ncnc2c1ncn2[C@H]1C=C[C@@H](OCP(=O)(O)O)O1`, the Activity was determined as 2.9 in series [1], 0.9 in series [2] and 2.9 in series [4]. In series [5], this compound displayed an EC50 of 2.1 µM. Besides, in series [6], the IC50 was determined as 0.6 µM. In series [3], this compound gave a cytotoxic concentration (CC50) of more than 1000 µM.
For the compound `Nc1ncnc2c1ncn2[C@@H]1O[C@H](OCP(=O)(O)O)C=C1F` [GS-9148], the values for the Activity in series [1], in series [2] and in series [4] were 4.3, 0.8 and 1.1, respectively. Further, the IC50 in series [6] came to 1.9 µM. In series [3], the CC50 is more than 1000 µM.
For the compound `Cc1cn([C@H]2C[C@H](N=[N+]=[N-])[C@@H](CO)O2)c(=O)[nH]c1=O` [ZIDOVUDINE], the Activity in series [1] is more than 50; in series [2] it was 0.7; in series [4], 1.2. The same compound yielded an EC50 in series [5] of 0.16 µM. The compound further returned a CC50 in series [3] of more than 200 µM.
